Patent US6916826B2, “Substituted imidazo[1,2-a]pyridine derivatives” (Hoffman-La Roche Inc., priority 2001, dated 2005)

Tested on: central benzodiazepine receptors
Experiment: not given
Conditions: from cited reference (Eur. J. Pharmacol. 1986, 130(3), 257-263); cited from earlier work
For `Cc1ccc(-c2nc3ccc(C)cn3c2CC(=O)N(C)C)cc1` [N,N,6-trimethyl-2-(4-methylphenyl)-imidazo[1,2-a]pyridine-3-acetamide, reference compound], the “agonist properties at central benzodiazepine receptors” value is listed as “possesses agonist properties at central benzodiazepine receptors”.

Biological target: central benzodiazepine receptors
Experiment: Inhibition of binding of tritiated flumazenil to benzodiazepine receptors in rat cortex
Conditions: [3H]flumazenil, Cheng & Prusoff
Method: The affinity of compounds of formula I to the central benzodiazepine receptors in vitro was also tested using standard methods as for example described in Nature 1981, 294, 763-765 and J. Neurochemistry 1981, 37, 714-722. According to these methods, the inhibition of the binding of tritiated flumazenil to the specific benzodiazepine receptors in the cortex of rats by the respective test substances is determined and the inhibition dissociation constant (Ki) of each test compound is determined according to the method of Cheng & Prusoff (1973).
With `Cc1ccc(-c2cn3ccccc3n2)cc1C.Cl` [Example 6, 2-(3,4-Dimethyl-phenyl)-imidazo[1,2-a]pyridine hydrochloride] the “pKi (negative logarithm of the Ki)” value was 5.2.

Biological target: T1, rat mGlu 5a receptor (Rattus norvegicus, UniProt P31424)
T1 construct: expressed in transfected cells; host or cells: EBNA cells (transient transfection)
T1 sequence (P31424 21-1171 isoform P31424-2 limits assumed): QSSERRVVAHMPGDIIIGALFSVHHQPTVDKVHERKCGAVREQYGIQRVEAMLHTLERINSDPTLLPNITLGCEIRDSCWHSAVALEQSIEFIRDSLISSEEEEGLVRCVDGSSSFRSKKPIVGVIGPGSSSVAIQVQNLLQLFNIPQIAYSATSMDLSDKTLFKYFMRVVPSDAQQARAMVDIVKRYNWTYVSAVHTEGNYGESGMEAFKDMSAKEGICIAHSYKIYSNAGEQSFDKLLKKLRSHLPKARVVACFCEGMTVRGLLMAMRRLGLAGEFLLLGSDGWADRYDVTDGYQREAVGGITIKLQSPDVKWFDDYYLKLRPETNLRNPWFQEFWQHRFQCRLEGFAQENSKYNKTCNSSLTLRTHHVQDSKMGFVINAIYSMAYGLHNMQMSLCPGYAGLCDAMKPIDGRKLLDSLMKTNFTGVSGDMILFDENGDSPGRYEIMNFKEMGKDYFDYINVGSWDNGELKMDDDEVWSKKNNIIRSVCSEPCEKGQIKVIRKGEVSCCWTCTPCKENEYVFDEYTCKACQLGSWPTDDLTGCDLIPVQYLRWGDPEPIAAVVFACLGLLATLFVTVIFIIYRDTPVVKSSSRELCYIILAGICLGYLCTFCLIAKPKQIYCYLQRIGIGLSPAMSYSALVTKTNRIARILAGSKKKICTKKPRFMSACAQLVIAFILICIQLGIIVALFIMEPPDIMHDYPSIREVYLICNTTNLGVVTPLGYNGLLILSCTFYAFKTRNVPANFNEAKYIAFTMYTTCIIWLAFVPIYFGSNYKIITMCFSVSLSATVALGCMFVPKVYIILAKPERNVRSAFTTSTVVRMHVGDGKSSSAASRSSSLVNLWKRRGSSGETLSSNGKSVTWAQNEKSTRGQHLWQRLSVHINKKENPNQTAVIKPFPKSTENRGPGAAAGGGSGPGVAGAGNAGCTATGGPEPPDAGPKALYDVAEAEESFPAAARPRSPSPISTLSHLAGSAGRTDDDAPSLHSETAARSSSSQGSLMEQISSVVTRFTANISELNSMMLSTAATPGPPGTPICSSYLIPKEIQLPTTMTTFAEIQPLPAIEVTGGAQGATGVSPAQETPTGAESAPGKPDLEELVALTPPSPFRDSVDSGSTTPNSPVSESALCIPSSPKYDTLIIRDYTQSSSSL
Experiment: [Ca2+]i FLIPR antagonist assay on mGlu 5a transfected EBNA cells against 10 μM glutamate
Type: cell-based
Conditions: rat mGlu 5a transiently transfected EBNA cells; against 10 μM glutamate as agonist
Method: The pharmacological activity of the compounds of the present invention was tested using the following methods: cDNA encoding rat mGlu 5a receptor was transiently transfected into EBNA cells using a procedure described by E.-J. Schlaeger and K. Christensen (Transient gene expression in mammalian cells grown in serum-free suspension culture, Cytotechnology 1999, 30, 71-83). [Ca^2+]i measurements were performed on mGlu 5a transfected EBNA cells after incubation of the cells with Fluo 3-AM (obtainable by FLUKA, 0.5 μM final concentration) for 1 hour at 37° C. followed by 4 washes with assay buffer (DMEM supplemented with Hank's salt and 20 mM HEPES. [Ca^2+]i measurements were done using a fluorometric imaging plate reader (FLIPR, Molecular Devices Corporation, La Jolla, Calif., USA). When compounds were evaluated as antagonists they were tested against 10 μM glutamate as agonist.
The inhibition (antagonist) curves were fitted with a four parameter logistic equation giving IC50, and Hill coefficient using the iterative non linear curve fitting software Origin (Microcal Software Inc., Northampton, Mass., USA).
With `Cc1ccc(-c2cn3ccc(Cl)cc3n2)cc1C` [Example 1, 7-Chloro-2-(3,4-dimethyl-phenyl)-imidazo[1,2-a]pyridine] the IC50 was 100 nM.
Work on `COc1ccc(-c2cn3ccc(C)cc3n2)cc1OC` [Example 2, 2-(3,4-Dimethoxy-phenyl)-7-methyl-imidazo[1,2-a]pyridine] yielded an IC50 of 1880 nM.
`COc1ccc(-c2cn3ccccc3n2)cc1OC` [Example 3, 2-(3,4-Dimethoxy-phenyl)-imidazo[1,2-a]pyridine] showed an IC50 of 6800 nM.
In the case of `COc1ccn2cc(-c3ccc(C)c(C)c3)nc2c1` [Example 4, 2-(3,4-Dimethyl-phenyl)-7-methoxy-imidazo[1,2-a]pyridine], the IC50 is reported as 140 nM.
`COc1ccn2cc(-c3ccc(OC)c(OC)c3)nc2c1` [Example 5, 2-(3,4-Dimethoxy-phenyl)-7-methoxy-imidazo[1,2-a]pyridine] showed an IC50 of 3300 nM.
Work on `Cc1ccc(-c2cn3ccccc3n2)cc1C.Cl` [Example 6, 2-(3,4-Dimethyl-phenyl)-imidazo[1,2-a]pyridine hydrochloride] yielded an IC50 of 37 nM.
Compound `Cc1ccn2cc(-c3ccc(C)c(C)c3)nc2c1` [Example 7, 2-(3,4-Dimethyl-phenyl)-7-methyl-imidazo[1,2-a]pyridine] has an IC50 of 280 nM.
Compound `Fc1ccc(-c2cn3ccccc3n2)cc1Br` [Example 8, 2-(3-Bromo-4-fluoro-phenyl)-imidazo[1,2-a]pyridine] has an IC50 of 690 nM.
`COc1cc(-c2cn3ccccc3n2)ccc1OCc1ccccc1` [Example 9, 2-(4-Benzyloxy-3-methoxy-phenyl)-imidazo[1,2-a]pyridine] showed an IC50 of 830 nM.
Compound `c1ccn2cc(-c3ccc4c(c3)CCC4)nc2c1` [Example 10, 2-Indan-5-yl-imidazo[1,2-a]pyridine] has an IC50 of 930 nM.
`Brc1cccc(-c2cn3ccccc3n2)c1` [Example 11, 2-(3-Bromo-phenyl)-imidazo[1,2-a]pyridine] gave an IC50 of 950 nM.
Compound `Ic1cccc(-c2cn3ccccc3n2)c1` [Example 12, 2-(3-Iodo-phenyl)-imidazo[1,2-a]pyridine] has an IC50 of 970 nM.
Work on `Clc1cccc(-c2cn3ccccc3n2)c1` [Example 13, 2-(3-Chloro-phenyl)-imidazo[1,2-a]pyridine] yielded an IC50 of 1230 nM.
For `Cc1cccc(-c2cn3ccccc3n2)c1` [Example 14, 2-(3-Methyl-phenyl)-imidazo[1,2-a]pyridine], the IC50 was 1550 nM.
`c1ccc2oc(-c3cn4ccccc4n3)cc2c1` [Example 15, 2-Benzofuran-2-yl-imidazo[1,2-a]pyridine] showed an IC50 of 1660 nM.
Compound `c1ccc2c(-c3cn4ccccc4n3)csc2c1` [Example 16, 2-Benzo[b]thiophen-3-yl-imidazo[1,2-a]pyridine] has an IC50 of 2760 nM.
`FC(F)(F)c1cccc(-c2cn3ccccc3n2)c1` [Example 17, 2-(3-Trifluoromethyl-phenyl)-imidazo[1,2-a]pyridine] showed an IC50 of 2790 nM.
`c1ccn2cc(-c3ccc4c(c3)CCO4)nc2c1` [Example 18, 2-(2,3-Dihydro-benzofuran-5-yl)-imidazo[1,2-a]pyridine] showed an IC50 of 2860 nM.
`Fc1cccc(-c2cn3ccccc3n2)c1` [Example 19, 2-(3-Fluoro-phenyl)-imidazo[1,2-a]pyridine] showed an IC50 of 3410 nM.
In the case of `CCc1ccn2cc(-c3ccc(C)c(C)c3)nc2c1` [Example 20, 2-(3,4-Dimethyl-phenyl)-7-ethyl-imidazo[1,2-a]pyridine], the IC50 is reported as 3640 nM.
In the case of `Cc1ccc(-c2cn3ccccc3n2)s1` [Example 21, 2-(5-Methyl-thiophen-2-yl)-imidazo[1,2-a]pyridine], the IC50 is reported as 6130 nM.
For `Cc1ccn2cc(-c3ccccc3)nc2c1` [Example 22, 7-Methyl-2-phenyl-imidazo[1,2-a]pyridine], the IC50 was 7500 nM.
`Cc1ccc(-c2cn3ccccc3n2)cc1` [Example 23, 2-(4-Methyl-phenyl)-imidazo[1,2-a]pyridine] showed an IC50 of 8770 nM.
For `Cc1cc(-c2cn3ccccc3n2)c(C)s1` [Example 24, 2-(2,5-Dimethyl-thiophen-3-yl)-imidazo[1,2-a]pyridine], the IC50 was 580 nM.
With `COc1cccc(-c2cn3ccccc3n2)c1` [Example 25, 2-(3-Methoxy-phenyl)-imidazo[1,2-a]pyridine] the IC50 was 1650 nM.
For `COc1ccc(-c2cn3cc(C)ccc3n2)cc1OC` [Example 26, 2-(3,4-Dimethoxy-phenyl)-6-methyl-imidazo[1,2-a]pyridine], the IC50 was 8300 nM.
With `c1ccn2cc(-c3ccc4c(c3)OCCO4)nc2c1` [Example 27, 2-(2,3-Dihydro-benzo [1,4]dioxin-6-yl)-imidazo[1,2-a]pyridine] the IC50 was 990 nM.
Compound `Cc1ccc(-c2cn3cc(C)ccc3n2)cc1` [Example 28, 6-Methyl-2-(4-methyl-phenyl)-imidazo[1,2-a]pyridine] has an IC50 of 10000 nM.
With `O=[N+]([O-])c1cccc(-c2cn3ccccc3n2)c1` [Example 29, 2-(3-Nitro-phenyl)-imidazo[1,2-a]pyridine] the IC50 was 10000 nM.

Same assay, conditions: statement in words, compared with compounds of formula I
In the case of `Cc1ccc(-c2nc3ccc(C)cn3c2CC(=O)N(C)C)cc1` [N,N,6-trimethyl-2-(4-methylphenyl)-imidazo[1,2-a]pyridine-3-acetamide, reference compound], the “affinity toward the mGluR5 receptor” value is reported as “does not possess the affinity toward the mGluR5 receptor”.

Tested on: not given
Experiment: not given
Conditions: not given
`Cc1ccc(-c2cn3ccc(Cl)cc3n2)cc1C` [Example 1, 7-Chloro-2-(3,4-dimethyl-phenyl)-imidazo[1,2-a]pyridine] showed a melting point of 144 °C.
For `COc1ccc(-c2cn3ccc(C)cc3n2)cc1OC` [Example 2, 2-(3,4-Dimethoxy-phenyl)-7-methyl-imidazo[1,2-a]pyridine], the melting point was 163 °C.
Compound `COc1ccn2cc(-c3ccc(C)c(C)c3)nc2c1` [Example 4, 2-(3,4-Dimethyl-phenyl)-7-methoxy-imidazo[1,2-a]pyridine] has a melting point of 175 °C.
Work on `COc1ccn2cc(-c3ccc(OC)c(OC)c3)nc2c1` [Example 5, 2-(3,4-Dimethoxy-phenyl)-7-methoxy-imidazo[1,2-a]pyridine] yielded a melting point of 142 °C.
